According to patent US8703825B2, “Compounds, use thereof as medicaments, and method of preparation thereof” (Universite de Lorraine, priority 2008, dated 2014):
Values after ≈ are worked out from the molar mass of the structure shown. Read-outs that look alike come from different tables or passages of the source.

How the values were obtained:
Assay type in all cases: cell-based
[1] = test system: Escherichia coli ATCC 25922; assay: MIC by microdilution in liquid medium (CLSI / CA-SFM)
Description: (§1) According to the joint recommendations: • of the “Comite de l′Antibiogramme de la Société Française de Microbiologie” (Antibiogram Committee of the French Society of Microbiology) (CA-SFM) [CA-SFM. Communique 2007 (Edition of January 2007). http://www.sfm.asso.fr] and, • of the “Clinical and Laboratory Standards Institute” (CLSI, formerly “National Committee for Clinical Laboratory Standards” or NCCLS) [NCCLS. 2003. Methods for dilution antimicrobial susceptibility tests for bacteria that grow aerobically; approved standard M7-A6, 6th ed. National Committee for Clinical Laboratory Standards, Wayne, Pa., USA.], five reference bacterial strains were used for the study: Escherichia coli ATCC 25922, Pseudomonas aeruginosa ATCC 27853, Staphylococcus aureus ATCC 25923 & ATCC 29213 and Enterococcus faecalis ATCC 29212.
(§2) The bacteria are cultivated either on Mueller-Hinton agar (Difco, 225250), or in Mueller-Hinton broth (Difco, 275730), at 35° C. [Grare M, Mourer M, Fontanay S, Regnouf-de-Vains J B, Finance C, Duval R E. In vitro activity of para-guanidinoethylcalix[4]arene against susceptible and antibiotic-resistant Gram-negative and Gram-positive bacteria. J. Antimicrob Chemother. 2007; 60: 575-81].
(§3) The various molecules tested were prepared in the form of aqueous solution at 10^−2 mol/L. The solutions used for the biological tests are freshly prepared, and stored for a week at most, at 4° C. The solutions are filtered through a filter with pores of 0.22 μm (Millex®GP; 0.22 μm; Millipore; France) before each test.
(§4) Procedure for determining the Minimum Inhibitory Concentration (MIC)
(§5) The minimum inhibitory concentrations (MIC) were determined by the standardized method of microdilution in liquid medium (96-well microplate, U-shaped bottom, Greiner), in Mueller-Hinton broth, with a final inoculum of 10^5-10^6 CFU/mL, depending on the bacterial species, in accordance with the recommendations of the CLSI.
(§6) For the determination of MIC, bacterial suspensions are prepared from an isolated colony, taken from a Mueller-Hinton agar, taken up in 5 mL of Mueller-Hinton broth. After 24 h of growth, the bacterial suspensions are diluted in sterile distilled water in order to obtain an inoculum of 10^5-10^6 CFU/mL. The purity of the bacterial suspensions is tested by isolation on agar and Gram staining.
(§7) The results are the mean value of 4 independent experiments.

[2] = test system: Enterococcus faecalis ATCC 29212; assay: as above; conditions: ATCC29212, E. faecalis ATCC 29212, reference strain, read-out: MIC
Description: as §1, §2, §3, §4, §5, §6, §7

[3] = test system: Staphylococcus aureus ATCC 29213; assay: as above; conditions: Staphylococcus aureus, ATCC29213, S. aureus ATCC 29213, reference strain; read-out: MIC
Description: as §1, §2, §3, §4, §5, §6, §7

[4] = test system: Staphylococcus aureus ATCC 25923; assay: as above
Description: as §1, §2, §3, §4, §5, §6, §7

[5] = test system: Pseudomonas aeruginosa ATCC 27853; assay: as above; conditions: ATCC27853, P. aeruginosa ATCC 27853, reference strain, read-out: MIC
Description: as §1, §2, §3, §4, §5, §6, §7

[6] = test system: Gram-positive and Gram-negative bacteria (reference strains and clinical isolates); assay: Antibacterial activity overall (MIC determination); conditions: summary of MIC results
Description: as §1
The study also included 5 clinical isolates, obtained from rectal samples and/or from haemoculture: • […] E. coli (EcR1), • methicillin-resistant S. aureus (mecA gene) (SaR1), • vancomycin-resistant E. faecium (vanB gene) (EfR1), • E. faecalis resistant to teicoplanin and to vancomycin (vanA gene) (EfR2), and • P. aeruginosa overexpressing an efflux pump (PaRl).
as §4, §5, §6, §7

[7] = Escherichia coli, ATCC25922, E. coli ATCC 25922, reference strain, read-out: MIC
[8] = Staphylococcus aureus, ATCC25923, S. aureus ATCC 25923, reference strain, read-out: MIC
[9] = S. aureus ATCC 25923, reference strain

Row | MIC [1, 7] | MIC [2] | MIC [3] | MIC [4, 8] | MIC [5] | MIC [4, 9] | MIC ([1]; E. coli ATCC 25922, reference strain) | Structure (SMILES) | antibacterial activity (in words) [6]
1 | 64 µg/mL (≈ 173 µM) | 256 µg/mL (≈ 691 µM) | 8 µg/mL (≈ 21.6 µM) | 16 µg/mL (≈ 43.2 µM) | 64 µg/mL (≈ 173 µM) | – | – | N=C(N)NCCc1ccc(OCOc2ccc(CCNC(=N)N)cc2)cc1 [compound 1, 1,1-bis(4-(2-guanidinoethyl)phenoxy)methane] | –
2 | 32 µg/mL (≈ 80.3 µM) | 128 µg/mL (≈ 321 µM) | 2 µg/mL (≈ 5.02 µM) | 4 µg/mL (≈ 10 µM) | 64 µg/mL (≈ 161 µM) | – | – | N=C(N)NCCc1ccc(OCCCOc2ccc(CCNC(=N)N)cc2)cc1 [compound 3, 1,3-bis(4-(2-guanidinoethyl)phenoxy)propane] | –
3 | 32 µg/mL (≈ 77.6 µM) | 64 µg/mL (≈ 155 µM) | 1 µg/mL (≈ 2.42 µM) | 2 µg/mL (≈ 4.85 µM) | 64 µg/mL (≈ 155 µM) | – | – | N=C(N)NCCc1ccc(OCCCCOc2ccc(CCNC(=N)N)cc2)cc1 [compound 4, 1,4-bis(4-(2-guanidinoethyl)phenoxy)butane] | –
4 | 4 µg/mL (≈ 8.8 µM) | 8 µg/mL (≈ 17.6 µM) | 1 µg/mL (≈ 2.2 µM) | 1 µg/mL (≈ 2.2 µM) | 16 µg/mL (≈ 35.2 µM) | – | – | N=C(N)NCCc1ccc(OCCCCCCCOc2ccc(CCNC(=N)N)cc2)cc1 [compound 7, 1,7-bis(4-(2-guanidinoethyl)phenoxy)heptane] | –
5 | 1 to 2 µg/mL (≈ 2.01 to 4.03 µM) | < 1 µg/mL | < 1 µg/mL | < 1 µg/mL | 8 µg/mL (≈ 16.1 µM) | – | – | N=C(N)NCCc1ccc(OCCCCCCCCCCOc2ccc(CCNC(=N)N)cc2)cc1 [compound 10, 1,10-bis(4-(2-guanidinoethyl)phenoxy)decane] | –
6 | 128 µg/mL (≈ 347 µM) | 256 µg/mL (≈ 695 µM) | 32 µg/mL (≈ 86.8 µM) | 32 µg/mL (≈ 86.8 µM) | 128 µg/mL (≈ 347 µM) | – | – | N=C(N)CCc1ccc(OCCCOc2ccc(CCC(=N)N)cc2)cc1 [compound 103, 1,3-bis(4-(2-(amidino)ethyl)phenoxy)propane] | –
7 | 64 µg/mL (≈ 167 µM) | 256 µg/mL (≈ 669 µM) | 2 µg/mL (≈ 5.23 µM) | 2 µg/mL (≈ 5.23 µM) | 64 µg/mL (≈ 167 µM) | – | – | N=C(N)CCc1ccc(OCCCCOc2ccc(CCC(=N)N)cc2)cc1 [compound 104, 1,4-bis(4-(2-(amidino)ethyl)phenoxy)butane] | –
8 | 32 µg/mL (≈ 77.9 µM) | 32 µg/mL (≈ 77.9 µM) | 2 µg/mL (≈ 4.87 µM) | 4 µg/mL (≈ 9.74 µM) | 32 µg/mL (≈ 77.9 µM) | 2 (1) mg/L | – | N=C(N)CCc1ccc(OCCCCCCOc2ccc(CCC(=N)N)cc2)cc1 [compound 106, 1,6-bis(4-(2-(amidino)ethyl)phenoxy)hexane] | –
9 | 64 µg/mL (≈ 151 µM) | 32 µg/mL (≈ 75.4 µM) | – | – | 64 µg/mL (≈ 151 µM) | – | – | N=C(N)CCc1ccc(OCCCCCCCOc2ccc(CCC(=N)N)cc2)cc1 [compound 107, 1,7-bis(4-(2-(amidino)ethyl)phenoxy)heptane] | –
10 | 32 µg/mL (≈ 73 µM) | 8 µg/mL (≈ 18.2 µM) | – | 2 µg/mL (≈ 4.56 µM) | 16 µg/mL (≈ 36.5 µM) | 4 (1) mg/L | – | N=C(N)CCc1ccc(OCCCCCCCCOc2ccc(CCC(=N)N)cc2)cc1 [compound 108, 1,8-bis(4-(2-(amidino)ethyl)phenoxy)octane] | –
11 | 4 µg/mL (≈ 8.57 µM) | 2 µg/mL (≈ 4.29 µM) | 1 µg/mL (≈ 2.14 µM) | 1 µg/mL (≈ 2.14 µM) | 16 µg/mL (≈ 34.3 µM) | – | 8 (1) mg/L | N=C(N)CCc1ccc(OCCCCCCCCCCOc2ccc(CCC(=N)N)cc2)cc1 [compound 110, 1,10-bis(4-(2-(amidino)ethyl)phenoxy)decane] | –

Row | Structure (SMILES) | MIC [1, 7] | MIC [2] | MIC [3] | MIC [4, 8] | MIC [5] | MIC [4, 9] | MIC ([1]; E. coli ATCC 25922, reference strain) | antibacterial activity (in words) [6]
12 | N=C(N)NCCc1ccc(OCCCCCCCCCOc2ccc(CCNC(=N)N)cc2)cc1 [compound 9, 1,9-bis(4-(2-guanidinoethyl)phenoxy)nonane] | 1 µg/mL (≈ 2.07 µM) | 1 to 2 µg/mL (≈ 2.07 to 4.14 µM) | 0.25 µg/mL (≈ 0.518 µM) | 0.25 µg/mL (≈ 0.518 µM) | 4 µg/mL (≈ 8.29 µM) | – | – | very good activities on the 5 reference strains tested
